# Reference: US20240391923A1, “METHIONINE ADENOSYLTRANSFERASE 2A INHIBITOR FOR TREATING MTAP DELETION-TYPE CANCER” (SUZHOU GENHOUSE BIO CO., LTD., priority 2022, published 2024)
# Like-named read-outs stand apart in the source and are kept apart here.
# How the values were obtained:
# [1] = system: SDMA in human colon cancer cell line HCT116; experiment: Cell symmetric dimethylarginine (SDMA) test, In-cell Western, HCT116 (MTAP wild-type); assay type: cell-based; settings: Homo sapiens, HCT-116, 96 h
# In short: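 HCT116 cells treated 4 days at 37° C with compound, top concentration 6 μM, 1:4 dilutions, 6 points, versus DMSO. Fixed cells stained for SDMA with DRAQ5 normalisation; 800/700 nm ratio after background subtraction fitted by non-linear regression for IC50.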
# [2] = target: MAT2A recombinant protein (Homo sapiens, UniProt P31153); experiment: MAT2A inhibitory activity (malachite green colorimetric enzyme assay); assay type: biochemical
# Sequence of MAT2A recombinant protein (P31153 whole entry): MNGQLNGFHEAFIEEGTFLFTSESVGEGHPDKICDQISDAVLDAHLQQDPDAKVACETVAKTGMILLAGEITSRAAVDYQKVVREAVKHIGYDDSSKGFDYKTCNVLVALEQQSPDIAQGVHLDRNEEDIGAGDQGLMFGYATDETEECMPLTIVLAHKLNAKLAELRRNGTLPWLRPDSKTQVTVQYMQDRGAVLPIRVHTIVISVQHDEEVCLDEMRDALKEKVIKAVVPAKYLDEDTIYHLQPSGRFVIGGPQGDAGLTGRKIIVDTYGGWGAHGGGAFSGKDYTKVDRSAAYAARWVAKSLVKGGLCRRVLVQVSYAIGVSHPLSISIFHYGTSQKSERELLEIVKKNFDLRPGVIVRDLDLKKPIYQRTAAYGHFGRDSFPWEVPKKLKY
# In short: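 Recombinant human MAT2A with L-methionine and ATP in 50 mM HEPES pH 7.5, 50 mM KCl, 10 mM MgCl2, 10 mM DTT, 60 min at room temperature. Phosphate released detected by malachite green reagent (15 min) at 630 nm. Ten-point 1:3 series from 1000 nM final; IC50 by variable-slope non-linear regression.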
# Hut-78 cell strain = experiment: Tumor cell proliferation inhibition assay (CellTiter-Glo), Hut-78; assay type: cell-based; settings: Hut-78 cells, 5-day treatment
# Protocol: After the HCT116-MTAP-knockout (−/−) cell strain, the HCT116-MTAP wild-type(+/+)-cell strain, the DOHH-2 cell strain, or the Hut-78 cell strain was treated with the test compound for 5 days, the ATP level was measured using a CellTiter-Glo kit of Promega to evaluate the inhibition of the test compound against the growth of the tumor cell strain.
# In the present application, the HCT116-MTAP-knockout (−/−) cell strain, the HCT116-MTAP wild-type (+/+)-cell strain, the DOHH-2 cell strain, or the Hut-78 cell strain was seeded into a 96-well cell culture plate at an appropriate cell density. After 24 h, the cells were treated using the test compounds diluted 1:3 fold at the highest concentration of 10 μM for 10 gradients, and a DMSO treatment group was set up separately. The cells were cultured in a 37° C./5% CO2 incubator for 5 days.
# [3] = system: HCT116-MTAP-knockout (−/−) cell strain; experiment: Tumor cell proliferation inhibition assay (CellTiter-Glo), HCT116-MTAP-knockout (-/-); assay type: cell-based; settings: Homo sapiens, 120 h, HCT116-MTAP-knockout (−/−) cells, 5-day treatment
# In short: (§1)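 Growth inhibition read as ATP content (CellTiter-Glo) after 5-day compound exposure at 37 °C, 5% CO2. Dosing began 24 h post-seeding, ten 3-fold dilutions starting at 10 μM, alongside a DMSO-treated group.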
# [4] = system: SDMA in HCT116-MTAP-knockout cell line; experiment: Cell symmetric dimethylarginine (SDMA) test, In-cell Western, HCT116-MTAP-knockout; assay type: cell-based; settings: Homo sapiens, 96 h
# [5] = system: HCT116-MTAP wild-type (+/+)-cell strain; experiment: Tumor cell proliferation inhibition assay (CellTiter-Glo), HCT116-MTAP wild-type (+/+); assay type: cell-based; settings: Homo sapiens, 120 h, HCT116-MTAP wild-type (+/+) cells, 5-day treatment
# In short: as §1
# [6] = IC50 score class, read-out: Cell 96 h SDMA Inhibition (HCT116-MTAP+/+) (score)
# [7] = read-out: Cell 96 h SDMA inhibition (HCT116-MTAP+/+)
# [8] = IC50 score class, read-out: MAT2A Inhibition (score)
# [9] = Homo sapiens, HuT78, 120 h, IC50 score, read-out: Tumor cell 5-day relative growth inhibition (Hut-78) (nM), score
# [10] = Homo sapiens, HuT78, 120 h, IC50 value, read-out: Tumor cell 5-day relative growth inhibition (Hut-78)
# [11] = IC50 score, read-out: Tumor cell 5-day relative growth inhibition (HCT116-MTAP−/−) (nM), score
# [12] = IC50 value, read-out: Tumor cell 5-day relative growth inhibition (HCT116-MTAP−/−)
# [13] = IC50 score class, read-out: Cell 96 h SDMA Inhibition (HCT116-MTAP−/−) (score)
# [14] = read-out: Cell 96 h SDMA Inhibition (HCT116-MTAP−/−)
# [15] = IC50 score, read-out: Tumor cell 5-day relative growth inhibition (HCT116-MTAP+/+) (nM), score
# [16] = IC50 value, read-out: Tumor cell 5-day relative growth inhibition (HCT116-MTAP+/+)
smiles,measurement,setting,value
Cc1ncccc1-n1c(=O)c2nn(CC3CC3)cc2c2ccc(C(F)(F)F)nc21 [Compound B191],IC50,[1]; [6],1000 to 3000 nM
same,IC50,[1]; [7],1290 nM
same,IC50,[2]; [8],< 100 nM
same,IC50,[2]; read-out: MAT2A Inhibition,41 nM
same,IC50,Hut-78 cell strain; [9],< 500 nM
same,IC50,Hut-78 cell strain; [10],95.6 nM
same,IC50,[3]; [11],< 500 nM
same,IC50,[3]; [12],35.6 nM
same,IC50,[4]; [13],< 200 nM
same,IC50,[4]; [14],29.3 nM
same,IC50,[5]; [15],500 to 2000 nM
same,IC50,[5]; [16],942 nM
O=c1c2nn(C3CC3)cc2c2ccc(C(F)(F)F)nc2n1-c1cccnc1 [Compound B215],IC50,[1]; [6],1000 to 3000 nM
same,IC50,[1]; [7],1180 nM
same,IC50,[2]; [8],< 100 nM
same,IC50,[2]; read-out: MAT2A Inhibition,21.7 nM
same,IC50,Hut-78 cell strain; [9],< 500 nM
same,IC50,Hut-78 cell strain; [10],310 nM
same,IC50,[3]; [11],< 500 nM
same,IC50,[3]; [12],104 nM
same,IC50,[4]; [13],200 to 1000 nM
same,IC50,[4]; [14],210 nM
same,IC50,[5]; [15],≥ 2000 nM
same,IC50,[5]; [16],4200 nM
Cc1ncccc1-n1c(=O)c2nn(C)c(C)c2c2ccc(C(F)(F)F)nc21 [Compound B189],IC50,[1]; [6],200 to 1000 nM
same,IC50,[1]; [7],561 nM
same,IC50,[2]; [8],< 100 nM
same,IC50,[2]; read-out: MAT2A Inhibition,39.7 nM
same,IC50,Hut-78 cell strain; [9],< 500 nM
same,IC50,Hut-78 cell strain; [10],49.2 nM
same,IC50,[3]; [11],< 500 nM
same,IC50,[3]; [12],13.6 nM
same,IC50,[4]; [13],< 200 nM
same,IC50,[4]; [14],12.3 nM
same,IC50,[5]; [15],< 500 nM
same,IC50,[5]; [16],488 nM
Cc1ncccc1-n1c(=O)c2nn(C)cc2c2ccc(Cl)cc21 [Compound B233],IC50,[1]; [6],200 to 1000 nM
same,IC50,[1]; [7],250 nM
same,IC50,[2]; [8],< 100 nM
same,IC50,[2]; read-out: MAT2A Inhibition,13.4 nM
same,IC50,Hut-78 cell strain; [9],< 500 nM
same,IC50,"Hut-78 cell strain; IC50 value, read-out: Tumor cell 5-day relative growth inhibition (Hut-78)",8.05 nM
same,IC50,[3]; [11],< 500 nM
same,IC50,[3]; [12],15.5 nM
same,IC50,[4]; [13],< 200 nM
same,IC50,[4]; [14],6.35 nM
same,IC50,[5]; [15],< 500 nM
same,IC50,[5]; [16],135 nM
CNC(=O)CC1N=c2c(c3ccc(Cl)cc3n(-c3cccnc3)c2=O)=N1 (stereo not drawn) [Compound B37],IC50,[1]; [6],1000 to 3000 nM
same,IC50,[1]; [7],1260 nM
same,IC50,[2]; [8],< 100 nM
same,IC50,[2]; read-out: MAT2A Inhibition,51.7 nM
same,IC50,Hut-78 cell strain; [9],≥ 2000 nM
same,IC50,Hut-78 cell strain; [10],6430 nM
same,IC50,[4]; [13],200 to 1000 nM
same,IC50,[4]; [14],888 nM
same,IC50,[5]; [15],≥ 2000 nM
same,IC50,[5]; [16],> 2000 nM
O=c1c2nn(C(F)F)cc2c2ccc(Cl)cc2n1-c1cccnc1 [Compound B55],IC50,[1]; [6],1000 to 3000 nM
same,IC50,[1]; [7],1520 nM
same,IC50,[2]; [8],< 100 nM
same,IC50,[2]; read-out: MAT2A Inhibition,18 nM
same,IC50,Hut-78 cell strain; [9],< 500 nM
same,IC50,Hut-78 cell strain; [10],83 nM
same,IC50,[3]; [11],< 500 nM
same,IC50,[3]; [12],104 nM
same,IC50,[4]; [13],< 200 nM
same,IC50,[4]; [14],118 nM
same,IC50,[5]; [15],≥ 2000 nM
same,IC50,[5]; [16],3570 nM
Cn1cc2c(n1)c(=O)n(-c1ccc(F)c(O)c1)c1nc(C(F)(F)F)ccc21 [Compound B228],IC50,[1]; [6],> 3000 nM
same,IC50,[1]; [7],3220 nM
same,IC50,[2]; [8],< 100 nM
same,IC50,[2]; read-out: MAT2A Inhibition,37.3 nM
same,IC50,Hut-78 cell strain; [9],≥ 2000 nM
same,IC50,Hut-78 cell strain; [10],3450 nM
same,IC50,[4]; [13],1000 to 3000 nM
same,IC50,[4]; [14],2910 nM
same,IC50,[5]; [15],≥ 2000 nM
same,IC50,[5]; [16],> 2000 nM
COc1ccc(-n2cc3c(n2)c(=O)n(-c2ccccc2)c2nc(C(F)(F)F)ccc32)cc1 [Compound B218],IC50,[1]; [6],> 3000 nM
same,IC50,[1]; [7],> 3000 nM
same,IC50,[2]; [8],< 100 nM
same,IC50,[2]; read-out: MAT2A Inhibition,77.9 nM
same,IC50,Hut-78 cell strain; [9],< 500 nM
same,IC50,Hut-78 cell strain; [10],130 nM
same,IC50,[4]; [13],< 200 nM
same,IC50,[4]; [14],39.5 nM
same,IC50,[5]; [15],≥ 2000 nM
same,IC50,[5]; [16],3990 nM
Cc1ncccc1-n1c(=O)c2[nH]ncc2c2ccc(OC(F)(F)F)cc21 [Compound B101],IC50,[1]; [6],> 3000 nM
same,IC50,[1]; [7],> 3000 nM
same,IC50,[2]; [8],< 100 nM
same,IC50,[2]; read-out: MAT2A Inhibition,59.7 nM
same,IC50,Hut-78 cell strain; [9],< 500 nM
same,IC50,Hut-78 cell strain; [10],50.4 nM
same,IC50,[4]; [13],< 200 nM
same,IC50,[4]; [14],48.7 nM
same,IC50,[5]; [15],≥ 2000 nM
same,IC50,[5]; [16],> 2000 nM
CCn1nc2c(=O)n(-c3cccnc3)c3cc(Cl)ccc3c2c1F [Compound B33],IC50,[1]; [6],> 3000 nM
same,IC50,[1]; [7],4880 nM
same,IC50,[2]; [8],< 100 nM
same,IC50,[2]; read-out: MAT2A Inhibition,25.6 nM
same,IC50,Hut-78 cell strain; [9],500 to 2000 nM
same,IC50,Hut-78 cell strain; [10],1100 nM
same,IC50,[4]; [13],1000 to 3000 nM
same,IC50,[4]; [14],2650 nM
same,IC50,[5]; [15],≥ 2000 nM
same,IC50,[5]; [16],> 2000 nM
Cc1ncccc1-n1c(=O)c2[nH]ncc2c2ccc(C3CC3)nc21 [Compound B95],IC50,[1]; [6],> 3000 nM
same,IC50,[1]; [7],> 3000 nM
same,IC50,[2]; [8],< 100 nM
same,IC50,[2]; read-out: MAT2A Inhibition,48.2 nM
same,IC50,Hut-78 cell strain; [9],< 500 nM
same,IC50,Hut-78 cell strain; [10],18.8 nM
same,IC50,[4]; [13],< 200 nM
same,IC50,[4]; [14],4 nM
same,IC50,[5]; [15],500 to 2000 nM
same,IC50,[5]; [16],621 nM
Cn1cc2c(n1)c(=O)n(-c1cnccn1)c1nc(C(F)(F)F)ccc21 [Compound B227],IC50,[1]; [6],> 3000 nM
same,IC50,[1]; [7],3030 nM
same,IC50,[2]; [8],< 100 nM
same,IC50,[2]; read-out: MAT2A Inhibition,51.8 nM
same,IC50,Hut-78 cell strain; [9],≥ 2000 nM
same,IC50,Hut-78 cell strain; [10],4710 nM
same,IC50,[4]; [13],> 3000 nM
same,IC50,[4]; [14],4690 nM
same,IC50,[5]; [15],≥ 2000 nM
same,IC50,[5]; [16],≥ 2000 nM
NC(=O)CC1N=c2c(c3ccc(Cl)cc3n(-c3cccnc3)c2=O)=N1 (stereo not drawn) [Compound B36],IC50,[1]; [6],< 200 nM
same,IC50,[1]; [7],24.7 nM
same,IC50,[2]; [8],< 100 nM
same,IC50,[2]; read-out: MAT2A Inhibition,55.2 nM
same,IC50,Hut-78 cell strain; [9],≥ 2000 nM
same,IC50,Hut-78 cell strain; [10],> 2000 nM
same,IC50,[4]; [13],1000 to 3000 nM
same,IC50,[4]; [14],2730 nM
same,IC50,[5]; [15],≥ 2000 nM
same,IC50,[5]; [16],> 2000 nM
Cc1ncccc1-n1c(=O)c2nn(C3CC3)cc2c2ccc(C(F)(F)F)nc21 [Compound B211],IC50,[1]; [6],1000 to 3000 nM
same,IC50,[1]; [7],1020 nM
same,IC50,[2]; [8],< 100 nM
same,IC50,[2]; read-out: MAT2A Inhibition,35.8 nM
same,IC50,Hut-78 cell strain; [9],< 500 nM
same,IC50,Hut-78 cell strain; [10],47.7 nM
same,IC50,[4]; [13],< 200 nM
same,IC50,[4]; [14],39.1 nM
same,IC50,[5]; [15],500 to 2000 nM
same,IC50,[5]; [16],1150 nM
